The subject of this experiment is male spontaneously hypertensive rats. Kind of experiment: Decrease in systolic blood pressure in spontaneously hypertensive rats after intravenous bolus injection, indirect (tail-cuff) method. The following applies: for Decrease in systolic blood pressure (mmHg) time after administration (hour) 0.5: 0.5 hour after administration; for Decrease in systolic blood pressure (mmHg) time after administration (hour) 4: 4 hours after administration. The experiment is classed as in vivo, rat. Here is the method:
As test animals, four male spontaneously hypertensive rats (weight 400 to 440 g) that were sufficiently adapted for feeding and in which hypertension was confirmed were used.
Physiological saline aqueous solution containing 2.5% Nicolle and 2.5% ethanol of sample was intravenously administered by bolus injection at a dose of 1 ml per 1 kg of body weight. Systolic blood pressure after administration was measured by the indirect (tail-cuff) method.

As to `CCCCCCCCCCN1CCC(=C2c3ccccc3C=Cc3ccccc32)CC1.Cl` [Example 3, 1-Decyl-4-(5H-dibenzo[a,d]cyclohepten-5-ylidene)piperidine hydrochloride], for the setting “dose 3 mg/kg i.v. bolus”, the “Decrease in systolic blood pressure (mmHg) time after administration (hour) 0.5” value (shortened to “Decrease in systolic blood pressure … (hour) 0.5”) was −110 mmHg and the “Decrease in systolic blood pressure (mmHg) time after administration (hour) 4” value (“Decrease in systolic blood pressure … (hour) 4” below) is listed as −22 mmHg.

Take `COc1cc(C=CCN2CCC(=C3c4ccccc4C=Cc4ccccc43)CC2)ccc1O.Cl` [Example 365, 4-(5H-Dibenzo[a,d]cyclohepten-5-ylidene)-1-(4-hydroxy-3-methoxycinnamyl)piperidine hydrochloridine]: under “dose 3 mg/kg i.v. bolus”, the “Decrease in systolic blood pressure … (hour) 0.5” value was −80 mmHg and the “Decrease in systolic blood pressure … (hour) 4” value was −56 mmHg.

Consider `C1=Cc2ccccc2C(=C2CCN(CCCC3CCCCC3)CC2)c2ccccc21.Cl` [Example 9, 1-Cyclohexyl-3-(4-(5H-dibenzo[a,d]cyclohepten-5-ylidene)-1-piperidinyl)propane hydrochloride], for which, under “dose 10 mg/kg i.v. bolus”, the “Decrease in systolic blood pressure … (hour) 0.5” value is −91 mmHg and the “Decrease in systolic blood pressure … (hour) 4” value is on record as −19 mmHg.

As to `Cl.Cl.Nc1ccc(CN2CCC(=C3c4ccccc4C=Cc4ccccc43)CC2)cc1` [Example 140, 1-(4-Aminobenzy)-4-(5H-Dibenzo[a,d]cyclohepten-5-ylidene)piperidine dihydrochloride], under “dose 3 mg/kg i.v. bolus”, the “Decrease in systolic blood pressure … (hour) 0.5” value is recorded as −113 mmHg and the “Decrease in systolic blood pressure … (hour) 4” value is listed as −101 mmHg.

Take `Cl.c1ccc2c(c1)Sc1ccccc1C2=C1CCN(CCCCC2CCCCC2)CC1` [Example 182]: under “dose 10 mg/kg i.v. bolus”, the “Decrease in systolic blood pressure … (hour) 0.5” value was −11 mmHg and the “Decrease in systolic blood pressure … (hour) 4” value is −6 mmHg.

For `CCCCCCCCCCCN1CCC(=C2c3ccccc3C=Cc3ccccc32)CC1.Cl` [Example 136, 4-(5H-Dibenzo[a,d]cyclohepten-5-ylidene)-1-undecylpiperidine hydrochloride], where the note is “dose 10 mg/kg i.v. bolus”, the “Decrease in systolic blood pressure … (hour) 0.5” value is recorded as −100 mmHg and the “Decrease in systolic blood pressure … (hour) 4” value is listed as −40 mmHg.

As to `C1=Cc2ccccc2C(=C2CCNCC2)c2ccccc21.Cl` [Example 349, 4-(5H-Dibenzo[a,d]cyclohepten-5-ylidene)-1-piperidine hydrochloride], where the note is “dose 1 mg/kg i.v. bolus”, the “Decrease in systolic blood pressure … (hour) 0.5” value is listed as −48 mmHg and the “Decrease in systolic blood pressure … (hour) 4” value was −43 mmHg.

With `COc1cc(CN2CCC(=C3c4ccccc4C=Cc4ccccc43)CC2)cc(OC)c1OC` [Example 188, 4-(5H-Dibenzo[a,d]cyclohepten-5-ylidene)-1-(3,4,5-trimethoxybenzyl)piperidine], for the setting “dose 10 mg/kg i.v. bolus”, the “Decrease in systolic blood pressure … (hour) 0.5” value is −94 mmHg and the “Decrease in systolic blood pressure … (hour) 4” value is −12 mmHg.

On to `COc1ccc(C(=O)C(C)CCN2CCC(=C3c4ccccc4C=Cc4ccccc43)CC2)cc1OC.Cl` (centres unmarked) [Example 274, 4-(4-(5H-Dibenzo[a,d]cyclohepten-5-ylidene)-1-piperidinyl)-2-methyl-3′,4′-dimethoxybutyrophenone hydrochloride], for which, for the setting “dose 10 mg/kg i.v. bolus”, the “Decrease in systolic blood pressure … (hour) 0.5” value was −102 mmHg and the “Decrease in systolic blood pressure … (hour) 4” value is reported as −21 mmHg.

As for `CCCCCCCCCCN1CCC(=C2c3ccccc3CCc3ccccc32)CC1.Cl` [Example 185, 1-Decyl-4-(10,11-Dihydro-5H-dibenzo[a,d]cyclohepten-5-ylidene)piperidine hydrochloride], where the note is “dose 10 mg/kg i.v. bolus”, the “Decrease in systolic blood pressure … (hour) 0.5” value is on record as −66 mmHg and the “Decrease in systolic blood pressure … (hour) 4” value was −10 mmHg.

The values above are taken from patent publication USRE38257E1, “Piperdine derivatives and hypotensives containing the same” (Ajinomoto Co., Inc., priority 1988, dated 2003).
